Broadly, the MIC is the smallest concentration in the dilution series that meets the test's criterion for growth inhibition.

The record followed here is patent US4975538A, “Antibiotic sulfonylaminocarbonyl activated beta-lactams” (The Upjohn Company, priority 1989, dated 1990).

Common to all, as to experiment: Minimum Inhibitory Concentration (MIC), agar dilution in Mueller Hinton Agar
Holding throughout (assay type): cell-based

One assay deals with Staphylococcus Aureus. The note with it: 20 h. The procedure: (§1) The compounds of this invention and their respective pharmaceutically acceptable salts have antibiotic activity against a variety of gram-negative bacteria including Escherichia coli, Klebsiella pneumoniae, and Pseudomonas aeruginosa. The compounds are useful for treating bacterial infections in animals, including and most preferably humans. Compounds of the invention are tested for in vitro antimicrobial activity using standard testing procedures such as the determination of minimum inhibitory concentration (MIC) by methods described in "Methods for Dilution Antimicrobial Susceptibility Tests for Bacteria That Grow Aerobically" (M7-A) Published December 1985 by the National Committee for Clinical Laboratory Standards, 771 East Lancaster Avenue, Villanova, Pa. 19084. Briefly, MIC values are determined in unsupplemented Mueller Hinton Agar (MHA). The compounds tested are diluted serially into molten MHA at 47° C. The agar is poured into petri dishes and allowed to harden. The various bacteria used for testing are grown overnight on MHA at 35° C. and transferred to Tryptiease Soy Broth (TSB) until a turbidity of 0.5 McFarland standard is obtained. The bacteria are diluted one to twenty in TSB and inoculated on the plates (1 μl using a Steers replicator).

For the next assay, the system named is Proteus Vulgaris. The note with it: 20 h, culture number 9679. On the procedure: as §1
The next assay concerns Streptococcus Pyogenes. The note with it: 20 h, culture number 152. The procedure: as §1
Assay [1] deals with Staphylococcus epidermidis. The settings on record: 20 h, culture number 30031. On the procedure: as §1
In another assay the test system is Streptococcus Faecalis. The note with it: Enterococcus faecalis, 20 h; culture number 694. On the procedure:
as §1

The test system of a further assay is Klebsiella Pneumoniae. The settings on record: 20 h, culture number 58. On the procedure: as §1
The test system of the next assay is Klebsiella Oxytoca. The settings on record: 20 h. On the procedure: as §1
The next assay has as its system Pseudomonas Aeruginosa. The note with it: 20 h. On the procedure:
as §1

The next assay concerns Streptococcus Pneumoniae. The settings on record: 20 h, culture number 41. On the procedure:
as §1

A further assay relates to Escherichia Coli. The settings on record: 20 h. On the procedure: as §1
The next assay has as its system Citrobacter Freundli. The settings on record: 20 h, culture number 3507. The procedure: as §1
The next assay concerns Serratia Marcescens. The settings on record: 20 h, culture number 6888. The procedure: as §1
The next assay relates to Enterobacter Cloacae. The settings on record: 20 h. On the procedure: as §1

Values after ≈ are worked out from the molar mass of the structure shown.

`Nc1nc(/C(=N/OCC(=O)O)C(=O)N[C@H]2CN(C(=O)NS(=O)(=O)N3CCN(NC(=O)c4[nH]ccc(=O)c4O)C3=O)C2=O)cs1` [Compound E40, Acetic acid, [[[1-(2-amino-4-thiazolyl)-2-[[1-[[[[3-[[(1,4-dihydro-3-hydroxy-4-oxo-2-pyridinyl)carbonyl]amino]-2-oxo-1-imidazolidinyl]sulfonyl]-amino]carbonyl]-2-oxo-3-azetidinyl]amino]-2-oxoethylidene]amino]oxy]-, [S-(Z)]-]: the MIC was greater than 64 µg/mL in the assay on Staphylococcus Aureus (culture number 3665); greater than 64 µg/mL against Staphylococcus Aureus (culture number 6685); greater than 64 µg/mL against Staphylococcus Aureus (culture number 9213); greater than 64 µg/mL against Staphylococcus Aureus (culture number 9218); 0.25 µg/mL (≈ 0.381 µM) against Proteus Vulgaris; 64 µg/mL (≈ 97.5 µM) with Streptococcus Pyogenes. Besides, the MIC in [1] is greater than 64 µg/mL; against Streptococcus Faecalis, greater than 64 µg/mL; with Klebsiella Pneumoniae it was 0.5 µg/mL (≈ 0.762 µM); in the assay on Klebsiella Oxytoca (culture number 9383), 2 µg/mL (≈ 3.05 µM); in the assay with Klebsiella Oxytoca (culture number 9384) it was 0.5 µg/mL (≈ 0.762 µM); against Pseudomonas Aeruginosa (culture number 231) it was 64 µg/mL (≈ 97.5 µM). Besides, the MIC is 64 µg/mL (≈ 97.5 µM) against Pseudomonas Aeruginosa (culture number 9191); greater than 64 µg/mL with Streptococcus Pneumoniae; 0.5 µg/mL (≈ 0.762 µM) against Escherichia Coli (culture number 9379); 1 µg/mL (≈ 1.52 µM) in the assay on Escherichia Coli (culture number 9380); 0.5 µg/mL (≈ 0.762 µM) in the assay on Escherichia Coli (culture number 9451); 0.25 µg/mL (≈ 0.381 µM) against Citrobacter Freundli. The MIC against Serratia Marcescens is 2 µg/mL (≈ 3.05 µM); in the assay with Enterobacter Cloacae (culture number 9381), 64 µg/mL (≈ 97.5 µM); against Enterobacter Cloacae (culture number 9382), 1 µg/mL (≈ 1.52 µM).

For `CC(C)(O/N=C(\C(=O)N[C@H]1CN(C(=O)NS(=O)(=O)N2CCN(C(=O)c3cc(=O)c(O)c[nH]3)NC2=O)C1=O)c1csc(N)n1)C(=O)O` [Compound E18, Propanoic acid, 2-[[[1-(2-amino-4-thiazolyl)-2-[[1-[[[[1-[(1,4-dihydro-5-hydroxy-4-oxo-2-pyridinyl)carbonyl]tetrahydro-3-oxo-1,2,4-triazin-4(1H)-yl]sulfonyl]amino]carbonyl]-2-oxo-3-azetidinyl]amino]-2-oxoethylidene]amino]oxy]-2-methyl-[S-(Z)]-], the MIC was greater than 64 µg/mL with Staphylococcus Aureus (culture number 3665); greater than 64 µg/mL with Staphylococcus Aureus (culture number 6685); greater than 64 µg/mL against Staphylococcus Aureus (culture number 9218); 0.06 µg/mL (≈ 0.0876 µM) with Proteus Vulgaris; 16 µg/mL (≈ 23.4 µM) in the assay on Streptococcus Pyogenes; greater than 64 µg/mL in the assay on Streptococcus Faecalis. The MIC with Klebsiella Pneumoniae is 0.5 µg/mL (≈ 0.73 µM); against Klebsiella Oxytoca (culture number 9383), 0.125 µg/mL (≈ 0.183 µM); with Klebsiella Oxytoca (culture number 9384), 0.03 µg/mL (≈ 0.0438 µM); in the assay on Pseudomonas Aeruginosa (culture number 231), 0.25 µg/mL (≈ 0.365 µM); against Pseudomonas Aeruginosa (culture number 9191), 0.125 µg/mL (≈ 0.183 µM); against Streptococcus Pneumoniae it was greater than 64 µg/mL. Besides, the MIC in the assay on Escherichia Coli (culture number 9379) is less than 0.008 µg/mL; in the assay on Escherichia Coli (culture number 9380) it was less than 0.008 µg/mL; in the assay with Escherichia Coli (culture number 9451) it was less than 0.008 µg/mL; against Citrobacter Freundli it was 0.06 µg/mL (≈ 0.0876 µM); in the assay on Serratia Marcescens, 0.06 µg/mL (≈ 0.0876 µM); in the assay on Enterobacter Cloacae (culture number 9381) it was 16 µg/mL (≈ 23.4 µM). For the same molecule, it took 1 µg/mL (≈ 1.46 µM) to inhibit growth against Enterobacter Cloacae (culture number 9382) (MIC).

In the case of `CC(C)(O/N=C(\C(=O)N[C@H]1CN(C(=O)NS(=O)(=O)N2CCN(NC(=O)c3ccn(O)c(=O)c3)C2=O)C1=O)c1csc(N)n1)C(=O)O` [E42 (d), Propanoic acid, 2-[[[1-(2-amino-4-thiazolyl)-2-[[1-[[[[3-[[(1,2-dihydro-1-hydroxy-2-oxo-4-pyridinyl)carbonyl]amino]2-oxo-1-imidazolidinyl]sulfonyl]amino]carbonyl]-2-oxo-3-azetidinyl]amino]-2-oxoethylidene]amino]oxy]-2-methyl-, [S-(Z)]-], the MIC with Staphylococcus Aureus (culture number 3665) is greater than 64 µg/mL; against Staphylococcus Aureus (culture number 6685), greater than 64 µg/mL; against Staphylococcus Aureus (culture number 9218), greater than 64 µg/mL; against Proteus Vulgaris, 0.03 µg/mL (≈ 0.0438 µM); in the assay with Streptococcus Pyogenes, 4 µg/mL (≈ 5.84 µM); against Streptococcus Faecalis it was greater than 64 µg/mL. Also, the MIC against Klebsiella Pneumoniae is 0.25 µg/mL (≈ 0.365 µM); in the assay on Klebsiella Oxytoca (culture number 9383), 4 µg/mL (≈ 5.84 µM); with Klebsiella Oxytoca (culture number 9384) it was 0.25 µg/mL (≈ 0.365 µM); in the assay on Pseudomonas Aeruginosa (culture number 231), 1 µg/mL (≈ 1.46 µM); against Pseudomonas Aeruginosa (culture number 9191) it was 1 µg/mL (≈ 1.46 µM); against Streptococcus Pneumoniae it was 64 µg/mL (≈ 93.5 µM). Also, the MIC in the assay on Escherichia Coli (culture number 9379) was 0.25 µg/mL (≈ 0.365 µM); against Escherichia Coli (culture number 9380), 0.25 µg/mL (≈ 0.365 µM); with Escherichia Coli (culture number 9451), 0.125 µg/mL (≈ 0.183 µM); with Citrobacter Freundli, 0.25 µg/mL (≈ 0.365 µM); against Serratia Marcescens, 0.5 µg/mL (≈ 0.73 µM); against Enterobacter Cloacae (culture number 9381) it was 64 µg/mL (≈ 93.5 µM). For the same molecule, in the assay with Enterobacter Cloacae (culture number 9382), the MIC was 0.5 µg/mL (≈ 0.73 µM).

As to `CC(C)(O/N=C(\C(=O)N[C@H]1CN(C(=O)NS(=O)(=O)N2CCN(NC(=O)c3cccc(=O)n3O)C2=O)C1=O)c1csc(N)n1)C(=O)O` [E42 (c), Propanoic acid, 2-[[[1-(2-amino-4-thiazolyl)-2[[1-[[[[3-[[(1,6-dihydro-1-hydroxy-2-oxo-6-pyridinyl)carbonyl]amino]-2-oxo-1-imidazolidinyl]sulfonyl]amino]carbonyl]-2-oxo-3-azetidinyl]-amino]-2-oxoethylidene]amino]oxy]-2-methyl-, [S-(Z)]-], the minimum inhibitory concentration (MIC) in the assay with Staphylococcus Aureus (culture number 3665) was greater than 64 µg/mL; with Staphylococcus Aureus (culture number 6685), greater than 64 µg/mL; against Staphylococcus Aureus (culture number 9218) it was greater than 64 µg/mL; with Proteus Vulgaris, 0.06 µg/mL (≈ 0.0876 µM); with Streptococcus Pyogenes it was 4 µg/mL (≈ 5.84 µM); against Streptococcus Faecalis, greater than 64 µg/mL. The minimum inhibitory concentration (MIC) against Klebsiella Pneumoniae is 0.5 µg/mL (≈ 0.73 µM); in the assay with Klebsiella Oxytoca (culture number 9383), 8 µg/mL (≈ 11.7 µM); against Klebsiella Oxytoca (culture number 9384), 0.5 µg/mL (≈ 0.73 µM); with Pseudomonas Aeruginosa (culture number 231), 4 µg/mL (≈ 5.84 µM); in the assay with Pseudomonas Aeruginosa (culture number 9191), 8 µg/mL (≈ 11.7 µM); against Streptococcus Pneumoniae it was greater than 64 µg/mL. The MIC against Escherichia Coli (culture number 9379) is 0.25 µg/mL (≈ 0.365 µM); against Escherichia Coli (culture number 9380), 0.25 µg/mL (≈ 0.365 µM); in the assay with Escherichia Coli (culture number 9451), 0.5 µg/mL (≈ 0.73 µM); in the assay on Citrobacter Freundli, 0.5 µg/mL (≈ 0.73 µM); with Serratia Marcescens it was 0.5 µg/mL (≈ 0.73 µM); against Enterobacter Cloacae (culture number 9381), greater than 64 µg/mL. For the same molecule, it took 1 µg/mL (≈ 1.46 µM) to inhibit growth in the assay with Enterobacter Cloacae (culture number 9382) (MIC).

In the case of `Cn1cc(O)c(=O)cc1C(=O)NN1CCN(S(=O)(=O)NC(=O)N2C[C@H](NC(=O)/C(=N\OC(C)(C)C(=O)O)c3csc(N)n3)C2=O)C1=O` [E42 (a)], the minimal inhibitory concentration (MIC) against Staphylococcus Aureus (culture number 3665) was greater than 128 µg/mL; with Staphylococcus Aureus (culture number 6685), greater than 128 µg/mL; against Staphylococcus Aureus (culture number 9218), greater than 128 µg/mL; against Proteus Vulgaris, 0.5 µg/mL (≈ 0.716 µM); with Streptococcus Pyogenes, 128 µg/mL (≈ 183 µM); against Streptococcus Faecalis it was greater than 128 µg/mL. Also, the minimum inhibitory concentration (MIC) is 2 µg/mL (≈ 2.86 µM) against Klebsiella Pneumoniae; 1 µg/mL (≈ 1.43 µM) against Klebsiella Oxytoca (culture number 9383); 0.5 µg/mL (≈ 0.716 µM) in the assay with Klebsiella Oxytoca (culture number 9384); 2 µg/mL (≈ 2.86 µM) in the assay on Pseudomonas Aeruginosa (culture number 231); 2 µg/mL (≈ 2.86 µM) against Pseudomonas Aeruginosa (culture number 9191); greater than 128 µg/mL in the assay with Streptococcus Pneumoniae. In addition, the MIC in the assay on Escherichia Coli (culture number 9379) was 0.06 µg/mL (≈ 0.0859 µM); against Escherichia Coli (culture number 9380), less than 0.015 µg/mL; against Escherichia Coli (culture number 9451), 0.06 µg/mL (≈ 0.0859 µM); in the assay on Citrobacter Freundli it was 0.5 µg/mL (≈ 0.716 µM); in the assay with Serratia Marcescens, 0.25 µg/mL (≈ 0.358 µM); in the assay on Enterobacter Cloacae (culture number 9381), 64 µg/mL (≈ 91.6 µM). The molecule also returned an MIC against Enterobacter Cloacae (culture number 9382) of 4 µg/mL (≈ 5.73 µM).
